Results: patent US20250312462A1, “PAK1 DEGRADERS AND METHODS OF USE THEREOF” (INSTITUTE FOR CANCER RESEARCH D/B/A THE RESEARCH INSTITUTE …, priority 2022, published 2025)

Tests used:
SIK2 = SIK2 (Homo sapiens, UniProt Q9H0K1); experiment: KINOMEscan; conditions: read-out: Percent Control
Protocol: (§1) The kinase engagement assay (KINOMEscan®) was performed by DiscoverX assessing binding abilities toward a set of kinases.

CSF1R-autoinhibited = CSF1R-autoinhibited (Homo sapiens, UniProt P07333); experiment: KINOMEscan; conditions: read-out: Percent Control
Protocol: as §1

AURKB = AURKB (Homo sapiens, UniProt Q96GD4); experiment: KINOMEscan; conditions: read-out: Percent Control
Protocol: as §1

YANK1 = YANK1 (Homo sapiens, UniProt Q8WU08); experiment: KINOMEscan; conditions: read-out: Percent Control
Protocol: as §1

PKAC-beta = PKAC-beta (Homo sapiens, UniProt P22694); experiment: KINOMEscan; conditions: read-out: Percent Control
Protocol: as §1

BTK = BTK (Homo sapiens, UniProt Q06187); experiment: KINOMEscan; conditions: read-out: Percent Control
Protocol: as §1

ERK2 = ERK2 (Homo sapiens, UniProt P28482); experiment: KINOMEscan; conditions: read-out: Percent Control
Chain of ERK2 (P28482 whole entry): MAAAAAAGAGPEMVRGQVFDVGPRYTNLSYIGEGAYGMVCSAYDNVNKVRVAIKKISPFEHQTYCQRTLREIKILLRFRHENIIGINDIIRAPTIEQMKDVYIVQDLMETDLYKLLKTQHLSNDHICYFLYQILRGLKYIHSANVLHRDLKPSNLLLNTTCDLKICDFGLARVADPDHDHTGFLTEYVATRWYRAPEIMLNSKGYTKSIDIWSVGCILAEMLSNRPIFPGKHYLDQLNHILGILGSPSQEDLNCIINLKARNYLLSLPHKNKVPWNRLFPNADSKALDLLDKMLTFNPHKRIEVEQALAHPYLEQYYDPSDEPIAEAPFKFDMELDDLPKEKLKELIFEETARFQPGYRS
Protocol: as §1

EGFR = EGFR (Homo sapiens, UniProt P00533); experiment: KINOMEscan; conditions: read-out: Percent Control
Protocol: as §1

WEE1 = WEE1 (Homo sapiens, UniProt P30291); experiment: KINOMEscan; conditions: read-out: Percent Control
Protocol: as §1

ABL2 = ABL2 (Homo sapiens, UniProt P42684); experiment: KINOMEscan; conditions: read-out: Percent Control
Chain of ABL2 (P42684 whole entry): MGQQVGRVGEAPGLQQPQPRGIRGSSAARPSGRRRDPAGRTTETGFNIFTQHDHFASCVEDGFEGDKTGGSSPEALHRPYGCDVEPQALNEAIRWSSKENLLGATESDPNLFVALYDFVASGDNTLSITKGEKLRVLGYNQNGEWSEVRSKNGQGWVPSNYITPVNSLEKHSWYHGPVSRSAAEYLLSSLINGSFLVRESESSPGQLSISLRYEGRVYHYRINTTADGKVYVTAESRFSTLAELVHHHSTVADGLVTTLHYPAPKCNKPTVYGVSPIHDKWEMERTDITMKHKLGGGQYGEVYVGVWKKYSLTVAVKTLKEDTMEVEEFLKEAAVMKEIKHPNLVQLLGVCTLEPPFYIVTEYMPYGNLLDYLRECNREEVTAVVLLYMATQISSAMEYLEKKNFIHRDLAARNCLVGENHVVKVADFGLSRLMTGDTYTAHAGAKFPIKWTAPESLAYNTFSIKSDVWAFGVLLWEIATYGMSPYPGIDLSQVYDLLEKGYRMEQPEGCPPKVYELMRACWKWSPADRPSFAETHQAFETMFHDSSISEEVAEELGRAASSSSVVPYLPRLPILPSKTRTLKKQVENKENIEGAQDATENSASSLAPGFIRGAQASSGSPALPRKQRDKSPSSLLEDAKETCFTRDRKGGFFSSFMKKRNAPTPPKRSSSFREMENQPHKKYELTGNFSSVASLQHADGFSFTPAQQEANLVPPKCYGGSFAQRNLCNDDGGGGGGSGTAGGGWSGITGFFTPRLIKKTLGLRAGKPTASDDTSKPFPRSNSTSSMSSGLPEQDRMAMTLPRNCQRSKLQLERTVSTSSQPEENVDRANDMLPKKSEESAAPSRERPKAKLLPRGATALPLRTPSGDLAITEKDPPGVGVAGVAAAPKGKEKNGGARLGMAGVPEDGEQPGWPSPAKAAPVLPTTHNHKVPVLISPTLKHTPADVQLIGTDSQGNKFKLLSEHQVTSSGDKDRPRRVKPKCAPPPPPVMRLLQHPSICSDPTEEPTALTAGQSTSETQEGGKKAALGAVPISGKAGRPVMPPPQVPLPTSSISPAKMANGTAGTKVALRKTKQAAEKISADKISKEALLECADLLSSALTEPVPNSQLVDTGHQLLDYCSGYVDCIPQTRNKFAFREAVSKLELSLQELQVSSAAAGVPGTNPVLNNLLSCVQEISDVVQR
Protocol: as §1

AMPK-alpha2 = AMPK-alpha2 (Homo sapiens, UniProt P54646); experiment: KINOMEscan; conditions: read-out: Percent Control
Chain of AMPK-alpha2 (P54646 whole entry): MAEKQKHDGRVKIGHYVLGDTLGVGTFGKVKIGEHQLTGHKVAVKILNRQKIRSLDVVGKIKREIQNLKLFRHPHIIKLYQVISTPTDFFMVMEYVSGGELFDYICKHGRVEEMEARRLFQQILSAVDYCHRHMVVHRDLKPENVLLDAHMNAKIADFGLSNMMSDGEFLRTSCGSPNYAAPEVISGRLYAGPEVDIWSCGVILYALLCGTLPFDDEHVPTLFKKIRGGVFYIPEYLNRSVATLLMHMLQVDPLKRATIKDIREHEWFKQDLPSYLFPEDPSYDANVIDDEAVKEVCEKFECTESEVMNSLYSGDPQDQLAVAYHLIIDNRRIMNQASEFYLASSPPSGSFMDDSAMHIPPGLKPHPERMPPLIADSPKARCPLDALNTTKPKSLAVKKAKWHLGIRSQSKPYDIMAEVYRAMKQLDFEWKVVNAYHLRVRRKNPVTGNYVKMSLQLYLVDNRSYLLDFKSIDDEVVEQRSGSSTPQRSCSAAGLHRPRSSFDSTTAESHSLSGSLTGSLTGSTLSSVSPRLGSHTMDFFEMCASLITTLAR
Protocol: as §1

FES = FES (Homo sapiens, UniProt P07332); experiment: KINOMEscan; conditions: read-out: Percent Control
Protocol: as §1

IRAK1 = IRAK1 (Homo sapiens, UniProt P51617); experiment: KINOMEscan; conditions: read-out: Percent Control
Protocol: as §1

FLT3(D835V) = FLT3(D835V) (Homo sapiens, UniProt P36888, D835V); experiment: KINOMEscan; conditions: read-out: Percent Control
Protocol: as §1

NEK1 = NEK1 (Homo sapiens, UniProt Q96PY6); experiment: KINOMEscan; conditions: read-out: Percent Control
Protocol: as §1

PIP5K2B = PIP5K2B (Homo sapiens, UniProt P78356); experiment: KINOMEscan; conditions: read-out: Percent Control
Chain of PIP5K2B (P78356 whole entry): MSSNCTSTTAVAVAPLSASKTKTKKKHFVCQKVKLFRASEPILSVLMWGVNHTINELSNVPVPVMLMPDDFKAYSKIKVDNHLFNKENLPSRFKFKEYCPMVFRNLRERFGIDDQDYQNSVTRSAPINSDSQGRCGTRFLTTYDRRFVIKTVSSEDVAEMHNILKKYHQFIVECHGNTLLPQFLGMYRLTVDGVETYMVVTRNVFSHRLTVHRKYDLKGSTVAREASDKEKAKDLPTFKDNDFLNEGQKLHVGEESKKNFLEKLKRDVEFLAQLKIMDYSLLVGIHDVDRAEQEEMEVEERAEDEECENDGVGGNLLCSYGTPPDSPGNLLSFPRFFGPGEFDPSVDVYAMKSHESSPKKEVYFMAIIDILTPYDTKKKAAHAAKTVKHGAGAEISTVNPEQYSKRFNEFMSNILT
Protocol: as §1

FGFR1 = FGFR1 (Homo sapiens, UniProt P11362); experiment: KINOMEscan; conditions: read-out: Percent Control
Protocol: as §1

PIP5K1C = PIP5K1C (Homo sapiens, UniProt O60331); experiment: KINOMEscan; conditions: read-out: Percent Control
Protocol: as §1

[1] = target: TYK2(JH2domain-pseudokinase) (Homo sapiens, UniProt P29597); experiment: KINOMEscan; conditions: read-out: Percent Control
Chain of TYK2(JH2domain-pseudokinase) (P29597 589-875 limits assumed): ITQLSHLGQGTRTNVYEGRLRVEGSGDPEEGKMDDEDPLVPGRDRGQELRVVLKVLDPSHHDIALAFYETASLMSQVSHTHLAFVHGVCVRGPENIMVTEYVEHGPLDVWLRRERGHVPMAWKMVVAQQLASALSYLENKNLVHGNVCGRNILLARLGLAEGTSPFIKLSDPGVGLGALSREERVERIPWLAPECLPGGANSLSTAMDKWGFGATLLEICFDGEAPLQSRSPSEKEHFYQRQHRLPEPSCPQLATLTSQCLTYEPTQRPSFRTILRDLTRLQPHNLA
Protocol: as §1

ACVR2A = ACVR2A (Homo sapiens, UniProt P27037); experiment: KINOMEscan; conditions: read-out: Percent Control
Protocol: as §1

PAK2 = PAK2 (Homo sapiens, UniProt Q13177); experiment: PAK2 degradation in MCF7 and OVCAR3 cells, immunoblot; format: cell-based; design: due to their high expression of both PAK1 and PAK2; endogenous in cells; host or cells: MCF7, OVCAR3
Chain of PAK2 (Q13177 whole entry): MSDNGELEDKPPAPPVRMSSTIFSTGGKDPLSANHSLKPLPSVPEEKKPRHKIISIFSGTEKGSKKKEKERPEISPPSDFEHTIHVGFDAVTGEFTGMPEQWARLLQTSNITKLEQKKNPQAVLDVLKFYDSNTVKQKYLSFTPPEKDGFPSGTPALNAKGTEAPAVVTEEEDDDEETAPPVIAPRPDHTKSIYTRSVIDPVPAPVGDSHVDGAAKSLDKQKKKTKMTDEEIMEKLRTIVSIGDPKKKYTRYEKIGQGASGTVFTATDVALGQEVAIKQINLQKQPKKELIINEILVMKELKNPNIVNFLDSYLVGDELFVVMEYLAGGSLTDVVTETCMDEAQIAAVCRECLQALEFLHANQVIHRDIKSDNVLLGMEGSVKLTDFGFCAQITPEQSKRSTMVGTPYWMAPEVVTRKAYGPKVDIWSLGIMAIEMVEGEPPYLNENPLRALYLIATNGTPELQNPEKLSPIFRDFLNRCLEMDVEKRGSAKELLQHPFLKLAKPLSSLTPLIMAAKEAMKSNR
Protocol: […]. Cells were incubated overnight then treated with various concentrations of Pak degraders alone or together with bortezomib or lenalidomide for 24 hours. Protein lysates were harvested at the times specified.
Cells were washed once in PBS and lysed in RIPA buffer (50 mM Tris-HCl, 150 mM NaCl, 0.25% (w/v) sodium deoxycholate, 1% (w/v) NP-40, pH 7.5) containing protease inhibitor cocktail (Roche) and phosphatase inhibitor cocktail (Roche) for 30 minutes on ice. Cell lysates were obtained by centrifugation at 13,500 rpm for 15 minutes at 4° C. BCA protein assay (Thermo Scientific) was used to determine protein concentration then equal amounts of total proteins were separated by SDS-PAGE (Bio-Rad) and transferred to PVDF membrane (Thermo Scientific) at 100V for 2 hours. Membranes were blocked in 5% (w/v) non-fat dry milk in tris-buffered saline with 0.1% Tween-20 (TBS-T) for 1 hour and incubated with primary antibody at 4° C. for overnight. […]
After verifying that BJG-05-039 retained specificity for PAK1, its degradation activity in cells was characterized. First, the PAK1 degrader was evaluated in the breast cancer cell line MCF7 and the ovarian cancer cell line OVCAR3 due to their high expression of both PAK1 and PAK2 and their known dependence on PAK1 (Prudnikova, et al. (2016) Oncogene 35:2178-2185; Shrestha, et al. (2012) Oncogene 31:3397-3408). […]

PRKG2 = PRKG2 (Homo sapiens, UniProt Q13237); experiment: KINOMEscan; conditions: read-out: Percent Control
Chain of PRKG2 (Q13237 whole entry): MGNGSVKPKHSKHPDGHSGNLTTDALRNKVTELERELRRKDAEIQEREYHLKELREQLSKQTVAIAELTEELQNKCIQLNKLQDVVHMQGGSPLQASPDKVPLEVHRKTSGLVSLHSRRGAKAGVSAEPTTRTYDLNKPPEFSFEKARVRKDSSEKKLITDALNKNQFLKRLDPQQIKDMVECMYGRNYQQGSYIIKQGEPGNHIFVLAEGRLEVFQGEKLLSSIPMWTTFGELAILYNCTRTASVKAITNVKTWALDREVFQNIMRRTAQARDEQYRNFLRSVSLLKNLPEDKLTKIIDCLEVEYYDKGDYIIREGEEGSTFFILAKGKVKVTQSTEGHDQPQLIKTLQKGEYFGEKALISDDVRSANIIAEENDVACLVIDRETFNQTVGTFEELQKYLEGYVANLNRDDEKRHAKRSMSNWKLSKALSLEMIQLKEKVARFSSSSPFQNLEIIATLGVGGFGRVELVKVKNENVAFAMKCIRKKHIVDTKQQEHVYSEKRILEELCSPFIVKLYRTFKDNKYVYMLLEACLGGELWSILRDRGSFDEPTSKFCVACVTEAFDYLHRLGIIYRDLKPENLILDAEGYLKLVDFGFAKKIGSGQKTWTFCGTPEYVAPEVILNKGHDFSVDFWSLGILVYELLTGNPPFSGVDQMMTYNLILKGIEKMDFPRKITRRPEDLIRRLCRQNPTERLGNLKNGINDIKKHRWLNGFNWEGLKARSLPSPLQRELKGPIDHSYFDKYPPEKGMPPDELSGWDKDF
Protocol: as §1

EGFR(G719S) = EGFR(G719S) (Homo sapiens, UniProt P00533, G719S); experiment: KINOMEscan; conditions: read-out: Percent Control
Protocol: as §1

CDK8 = CDK8 (Homo sapiens, UniProt P49336); experiment: KINOMEscan; conditions: read-out: Percent Control
Protocol: as §1

CSNK2A2 = CSNK2A2 (Homo sapiens, UniProt P19784); experiment: KINOMEscan; conditions: read-out: Percent Control
Chain of CSNK2A2 (P19784 whole entry): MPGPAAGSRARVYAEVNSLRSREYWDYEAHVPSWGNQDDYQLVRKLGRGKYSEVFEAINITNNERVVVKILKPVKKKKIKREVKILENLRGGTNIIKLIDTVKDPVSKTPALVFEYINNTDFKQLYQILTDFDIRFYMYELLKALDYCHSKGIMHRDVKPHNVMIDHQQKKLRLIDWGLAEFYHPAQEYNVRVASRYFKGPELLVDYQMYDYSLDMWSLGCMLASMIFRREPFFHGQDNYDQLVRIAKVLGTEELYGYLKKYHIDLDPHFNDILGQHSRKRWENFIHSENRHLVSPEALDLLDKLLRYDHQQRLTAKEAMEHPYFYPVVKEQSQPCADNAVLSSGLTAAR
Protocol: as §1

BMPR1A = BMPR1A (Homo sapiens, UniProt P36894); experiment: KINOMEscan; conditions: read-out: Percent Control
Protocol: as §1

EPHA8 = EPHA8 (Homo sapiens, UniProt P29322); experiment: KINOMEscan; conditions: read-out: Percent Control
Protocol: as §1

[2] = target: RPS6KA5(Kin.Dom.2-C-terminal) (Homo sapiens, UniProt O75582); experiment: KINOMEscan; conditions: read-out: Percent Control
Chain of RPS6KA5(Kin.Dom.2-C-terminal) (O75582 426-687 limits assumed): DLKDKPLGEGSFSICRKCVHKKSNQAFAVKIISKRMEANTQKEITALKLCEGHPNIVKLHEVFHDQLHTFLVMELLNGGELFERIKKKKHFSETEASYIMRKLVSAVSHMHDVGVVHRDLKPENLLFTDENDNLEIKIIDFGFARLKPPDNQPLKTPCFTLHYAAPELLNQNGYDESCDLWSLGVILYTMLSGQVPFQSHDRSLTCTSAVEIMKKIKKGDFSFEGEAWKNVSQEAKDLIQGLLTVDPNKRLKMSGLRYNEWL
Protocol: as §1

O=C1CCC(N2C(=O)c3cccc(NCCCCCCCCNC(=O)N4CC[C@H](NC5=Nc6cc(F)ccc6N(CC(F)F)c6ccc(Cl)cc65)C4)c3C2=O)C(=O)N1 (stereo partly drawn) [BJG-05-039, (3S)-3-((2-Chloro-5-(2,2-difluoroethyl)-8-fluoro-5H-dibenzo[b,e][1,4]diazepin-11-yl)amino)-N-(8-((2-(2,6-dioxopiperidin-3-yl)-1,3-dioxoisoindolin-4-yl)amino)octyl)pyrrolidine-1-carboxamide]
remaining binding at 10 µM (SIK2): 97% | remaining binding at 10 µM (CSF1R-autoinhibited): 100% | remaining binding at 10 µM (AURKB): 93% | remaining binding at 10 µM (YANK1): 100% | remaining binding at 10 µM (PKAC-beta): 62% | remaining binding at 10 µM (BTK): 100% | remaining binding at 10 µM (ERK2): 85% | remaining binding at 10 µM (EGFR): 74% | remaining binding at 10 µM (WEE1): 42% | remaining binding at 10 µM (ABL2): 94% | remaining binding at 10 µM (AMPK-alpha2): 100% | remaining binding at 10 µM (FES): 86% | remaining binding at 10 µM (IRAK1): 100% | remaining binding at 10 µM (FLT3(D835V)): 76% | remaining binding at 10 µM (NEK1): 83% | remaining binding at 10 µM (PIP5K2B): 100% | remaining binding at 10 µM (FGFR1): 97% | remaining binding at 10 µM (PIP5K1C): 96% | remaining binding at 10 µM [1]: 97% | remaining binding at 10 µM (ACVR2A): 51% | PAK2 degradation (PAK2): not PAK2 | remaining binding at 10 µM (PRKG2): 100% | remaining binding at 10 µM (EGFR(G719S)): 84% | remaining binding at 10 µM (CDK8): 80% | remaining binding at 10 µM (CSNK2A2): 78% | remaining binding at 10 µM (BMPR1A): 98% | remaining binding at 10 µM (EPHA8): 84% | remaining binding at 10 µM [2]: 42%
